In patent US6867009B2 (priority 1999, dated 2005):
Values joined by “and” are separate entries in the source; they are usually repeats but may differ in a detail not shown here. Equal values may be shown once. Read-outs that look alike come from different tables or passages of the source.

Assays:
[1] = molecular target: T1, short form of human capsaicin receptor (Homo sapiens, UniProt Q8NER1, M315I/P91S/T469I); assay type: cell-based
T1 construct: expressed in transfected cells; host or cells: HEK 293T (transient, LIPOFECTAMINE; plasmid PT36)

rat VR1 [2] = molecular target: T2, rat VR1 (Rattus norvegicus, UniProt O35433); experiment: cell-based
T2 construct: expressed in transfected cells

[3] = tested on: rat dorsal root ganglion neurons; conditions: cited from earlier work
[4] = molecular target: T3, rat vanilloid-receptor-like protein 1 (VRL-1) (Rattus norvegicus, UniProt Q9WUD2); conditions: cited from earlier work
T3 sequence (Q9WUD2 1-761): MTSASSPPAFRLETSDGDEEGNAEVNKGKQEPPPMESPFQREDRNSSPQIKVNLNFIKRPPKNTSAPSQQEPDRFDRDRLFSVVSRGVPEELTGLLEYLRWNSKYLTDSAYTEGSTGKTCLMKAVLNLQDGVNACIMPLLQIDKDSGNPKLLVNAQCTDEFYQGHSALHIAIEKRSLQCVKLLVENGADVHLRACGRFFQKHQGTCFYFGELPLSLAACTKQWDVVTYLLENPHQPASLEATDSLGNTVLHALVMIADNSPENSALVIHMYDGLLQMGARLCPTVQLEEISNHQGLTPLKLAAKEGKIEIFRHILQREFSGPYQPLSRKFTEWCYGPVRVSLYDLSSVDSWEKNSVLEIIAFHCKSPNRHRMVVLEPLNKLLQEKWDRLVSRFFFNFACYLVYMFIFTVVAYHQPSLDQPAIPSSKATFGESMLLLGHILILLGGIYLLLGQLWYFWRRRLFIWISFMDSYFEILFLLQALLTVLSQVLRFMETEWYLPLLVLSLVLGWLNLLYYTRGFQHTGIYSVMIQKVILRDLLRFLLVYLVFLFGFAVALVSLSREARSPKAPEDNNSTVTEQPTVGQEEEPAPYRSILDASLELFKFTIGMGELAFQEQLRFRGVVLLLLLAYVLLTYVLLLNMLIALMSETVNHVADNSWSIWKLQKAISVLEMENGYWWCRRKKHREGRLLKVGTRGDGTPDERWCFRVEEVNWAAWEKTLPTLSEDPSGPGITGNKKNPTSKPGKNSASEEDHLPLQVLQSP

HEK 293T cells = assay type: cell-based, human
human capsaicin receptor = molecular target: T4, human capsaicin receptor (Homo sapiens, UniProt Q8NER1, T469I); assay type: cell-based
T4 construct: expressed in transfected cells; host or cells: HEK 293T (transient, LIPOFECTAMINE; pBK-CMV phagemid clones PT35, PT44)

rat VR1 [5] = molecular target: T2, rat VR1; experiment: biochemical; assay type: binding
[6] = molecular target: T5, native rat vanilloid receptors (Rattus norvegicus, UniProt O35433); experiment: biochemical; assay type: binding
T5 construct: rat DRG membranes expressing native vanilloid receptors; from tissue; host or cells: dorsal root ganglia of female Sprague-Dawley rats, partially purified membrane fraction

rat VR1 [7] = molecular target: T2, rat VR1; experiment: biochemical; assay type: binding; remark: listed apart in the source
rat VR1 [8] = molecular target: T2, rat VR1; experiment: cell-based; remark: listed apart in the source
VR1 = molecular target: T6, VR1 (Rattus norvegicus, UniProt O35433); conditions: cited from earlier work
T6 construct: host or cells: Xenopus oocytes (A8); VR1-transfected HEK293 cells (A9)

vanilloid receptor (VR) = molecular target: T7, vanilloid receptor (VR) (Rattus norvegicus, UniProt O35433); conditions: cited from earlier work
T7 construct: With regard to DRG neurons expressing native VRs this is clearly not the case; host or cells: intact rat dorsal root ganglion neurons

[9] = read-out: 45Ca2+-uptake (EC50, nM), agonists
[10] = read-out: EC50 for inducing calcium uptake / influx
[11] = EC50 (potency) of calcium mobilization
[12] = Binding affinity (nM), radioligand itself
[13] = read-out: Ki for inhibition of [3H]RTX binding

T5 sequence (O35433 whole entry): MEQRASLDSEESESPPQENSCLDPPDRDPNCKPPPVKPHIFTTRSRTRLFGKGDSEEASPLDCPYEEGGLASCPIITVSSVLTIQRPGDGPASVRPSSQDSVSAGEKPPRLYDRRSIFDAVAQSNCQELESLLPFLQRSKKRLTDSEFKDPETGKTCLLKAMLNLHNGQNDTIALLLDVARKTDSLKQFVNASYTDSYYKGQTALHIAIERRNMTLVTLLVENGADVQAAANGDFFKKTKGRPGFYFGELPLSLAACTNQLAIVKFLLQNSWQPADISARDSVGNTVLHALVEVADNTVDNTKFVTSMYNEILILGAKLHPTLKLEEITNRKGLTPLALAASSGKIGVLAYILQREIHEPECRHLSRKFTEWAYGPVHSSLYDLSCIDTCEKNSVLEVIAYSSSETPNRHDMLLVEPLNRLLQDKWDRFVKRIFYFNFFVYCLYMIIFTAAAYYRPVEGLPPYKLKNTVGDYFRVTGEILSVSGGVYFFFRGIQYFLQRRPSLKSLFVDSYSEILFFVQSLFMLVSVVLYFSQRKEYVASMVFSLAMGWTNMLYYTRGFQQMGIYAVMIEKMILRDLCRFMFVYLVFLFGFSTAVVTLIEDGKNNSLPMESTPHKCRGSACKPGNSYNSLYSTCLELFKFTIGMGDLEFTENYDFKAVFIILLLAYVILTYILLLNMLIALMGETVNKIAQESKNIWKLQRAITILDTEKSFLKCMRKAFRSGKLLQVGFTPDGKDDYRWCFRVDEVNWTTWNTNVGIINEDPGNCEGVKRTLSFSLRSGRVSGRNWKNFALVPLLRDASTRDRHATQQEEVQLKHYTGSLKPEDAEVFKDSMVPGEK
T2 sequence (O35433 whole entry): as above
T7 sequence (O35433 whole entry): as above
T4 sequence (Q8NER1 whole entry T469I): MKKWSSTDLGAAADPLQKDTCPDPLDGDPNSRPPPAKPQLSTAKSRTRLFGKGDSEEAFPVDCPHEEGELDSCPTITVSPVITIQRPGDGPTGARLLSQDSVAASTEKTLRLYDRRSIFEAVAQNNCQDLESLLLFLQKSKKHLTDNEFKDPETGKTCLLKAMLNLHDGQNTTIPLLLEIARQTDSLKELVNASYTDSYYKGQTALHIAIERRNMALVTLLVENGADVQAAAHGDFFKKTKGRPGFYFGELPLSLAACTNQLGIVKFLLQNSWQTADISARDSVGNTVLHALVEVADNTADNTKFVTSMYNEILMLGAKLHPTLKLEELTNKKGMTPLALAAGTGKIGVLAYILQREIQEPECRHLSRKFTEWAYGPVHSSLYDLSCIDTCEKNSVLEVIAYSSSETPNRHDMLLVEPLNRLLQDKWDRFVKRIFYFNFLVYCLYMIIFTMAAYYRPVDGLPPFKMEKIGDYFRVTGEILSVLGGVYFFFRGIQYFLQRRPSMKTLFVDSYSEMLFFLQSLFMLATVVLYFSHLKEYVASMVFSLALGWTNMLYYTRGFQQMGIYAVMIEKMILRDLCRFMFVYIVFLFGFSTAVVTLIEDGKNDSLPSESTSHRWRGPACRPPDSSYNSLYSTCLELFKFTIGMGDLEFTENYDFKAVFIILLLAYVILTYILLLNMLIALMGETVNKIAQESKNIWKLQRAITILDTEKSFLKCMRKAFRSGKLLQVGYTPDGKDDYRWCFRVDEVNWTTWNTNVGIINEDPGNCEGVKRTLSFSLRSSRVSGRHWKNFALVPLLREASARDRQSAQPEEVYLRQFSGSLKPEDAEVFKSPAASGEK
T1 sequence (Q8NER1 with tags, fused parts or gaps P91S/M315I/T469I): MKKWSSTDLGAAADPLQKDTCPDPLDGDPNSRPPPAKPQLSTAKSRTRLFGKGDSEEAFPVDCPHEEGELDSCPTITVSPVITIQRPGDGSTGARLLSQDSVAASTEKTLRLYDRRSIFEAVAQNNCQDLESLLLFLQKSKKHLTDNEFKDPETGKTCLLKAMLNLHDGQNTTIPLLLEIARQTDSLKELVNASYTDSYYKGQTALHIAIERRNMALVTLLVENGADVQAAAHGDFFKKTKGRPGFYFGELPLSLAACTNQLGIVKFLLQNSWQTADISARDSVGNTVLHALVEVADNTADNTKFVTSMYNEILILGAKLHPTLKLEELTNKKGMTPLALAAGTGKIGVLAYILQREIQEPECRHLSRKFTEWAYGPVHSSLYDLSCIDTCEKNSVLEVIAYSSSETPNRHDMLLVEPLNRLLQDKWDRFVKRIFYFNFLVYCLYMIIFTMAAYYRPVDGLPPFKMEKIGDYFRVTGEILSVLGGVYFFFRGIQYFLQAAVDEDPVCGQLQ
T6 sequence (O35433 whole entry): as the sequence (O35433 whole entry) above

Compound: COc1cc(CNC(=O)CCCC/C=C/C(C)C)ccc1O [capsaicin]
- Ave Max Response (RFU) [1]: 805 RFU
- time to peak value of calcium mobilization response (rat VR1 [2]): ≤ 1 min
- EC50 [3, 9]: 340 nM
- EC50 [3, 10]: 270 nM
- sensitivity of VRL-1 [4]: insensitive
- Ave Max Response (RFU) (HEK 293T cells): 843 RFU
- Ave Max Response (RFU) (human capsaicin receptor): 7257 RFU and 5529 RFU

Compound: Oc1cc2c(cc1O)CN(C(=S)NCCc1ccc(Cl)cc1)CCC2 [capsazepine]
- Ki (rat VR1 [2]; Ca2+-mobilization, Ki value): 140 nM and 1100 nM
- IC50 (rat VR1 [2]; IC50 for inhibition of capsaicin-evoked calcium mobilization): 2400 nM and 330 nM
- Ki ([3]; read-out: 45Ca2+-uptake, Ki value): 271 nM
- Ki (rat VR1 [5]; Binding affinity (nM), competing ligands): 5100 nM
- Ki [6]: 8600 nM

Compound: CC1(C)C[C@H]2C=C(C=O)[C@]3(C=O)C[C@]3(C)[C@H]2C1 [isovelleral]
- Ki (rat VR1 [7]; Ki for inhibition of [3H]RTX binding): 18000 nM and 20000 nM
- Ki [6]: 24000 nM

Compound: CCCCCCCC/C=C\CCCCCCCC(=O)NCc1ccc(O)c(OC)c1 [olvanil]
- EC50 (rat VR1 [2]; Ca2+-mobilization (EC50, nM), agonists): 216 nM
- EC50 (rat VR1 [2]; [11]): 22 nM
- EC50 [3, 9]: 170 nM
- Ki [6]: 300 nM

Compound: C=C(C)[C@]12C[C@@H](C)[C@@]34O[C@](Cc5ccccc5)(O[C@@H]1[C@@H]3C=C(COC(=O)Cc1ccc(O)c(OC)c1)C[C@]1(O)C(=O)C(C)=C[C@@H]41)O2 [resiniferatoxin, Resiniferatoxin]
- Bmax (rat VR1 [7]): 250+/−24 fmol/10^6 cells
- Hill coefficient, FIG. 1A (rat VR1 [7]): 1.8
- Hill number (cooperativity index) (rat VR1 [7]): 2.1 and 2.1+/−0.2
- dissociation constant (1st order decay) (rat VR1 [7]): 0.12 ± 0.02 min⁻¹
- maximal receptor density, FIG. 1A (rat VR1 [7]): 222 fmol per one million cells
- non-specific binding as share of total binding (rat VR1 [7]): approximately 20%
- receptor density (rat VR1 [7]): 1.5×10^5 binding sites per cell
- specific binding attained, of its peak value (rat VR1 [7]): approximately 90%
- Kd (rat VR1 [7]; Half-maximal binding, FIG. 1A): 0.056 nM
- Kd (rat VR1 [7]; [3H]RTX binding affinity (half-maximal binding)): 0.084 nM
- time-course of calcium mobilization response (rat VR1 [2]): slowly developing but persistent calcium currents
- EC50 (rat VR1 [2]; [11]): 1.4 nM
- EC50 [3, 10]: 1 nM
- Hill number (rat VR1 [5]): 1.8 and 1.9+/−0.1
- maximal receptor density (rat VR1 [5]): 470+/−30 fmol/10^6 cells
- Kd (rat VR1 [5]; [12]): 0.13 nM
- Kd (rat VR1 [5]; [3H]RTX binding affinity (Kd)): 0.103 nM
- EC50 (rat VR1 [8]): 4.1 nM
- Bmax [6]: 290+/−10 fmol/mg protein
- Hill coefficient, FIG. 2 [6]: 1.5
- Hill number (cooperativity index) [6]: 1.7 and 1.9+/−2
- maximal receptor density, FIG. 2 [6]: 302 fmol per one million cells
- Kd [6, 12]: 0.07 nM
- Kd ([6]; Half-maximal binding, FIG. 2): 0.06 nM
- Kd ([6]; [3H]RTX Kd): 0.07 nM
- fold more potent than capsaicin (VR1): approximately 20 fold
- fold more potent for binding than for inducing calcium uptake (vanilloid receptor (VR)): approximately 25 fold
- Kd (vanilloid receptor (VR); read-out: Kd of binding): 0.04 nM

Compound: N.N.N.N.N.N.N.N.N.N.N.N.N.N.[Cl-].[Cl-].[Cl-].[Cl-].[Cl-].[Cl-].[O-2].[O-2].[Ru+3].[Ru+3].[Ru+4] [ruthenium red]
- IC50 (rat VR1 [2]; read-out: IC50 for prevention of calcium mobilization by capsaicin, n=7): 210 nM
- Binding affinity (nM), competing ligands (rat VR1 [5]): no effect
- Binding affinity (nM), competing ligands [6]: no effect

Compound: CC(C)=CCC/C(C)=C/CC/C(C)=C/Cc1c(C)c(C=O)c(O)c(O)c1O [scutigeral]
- Ki (rat VR1 [7]; [13]): 20000 nM and 18000 nM
- Ki [6, 13]: 21000 nM
